{"source": "the METLIN SMRT retention time set (Domingo-Almenara et al. 2019)", "experiment": "gradient 5% acetonitrile 3 min, to 50% in 2 min, to 85% in 15 min, held 3 min, 100 µL/min", "settings": "column: Zorbax Extend-C18 2.1 x 50 mm; eluents: water / acetonitrile, 0.1% formic acid", "summary_of_the_method": "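Data were gathered over 3 months by HPLC coupled to a quadrupole time-of-flight mass spectrometer, operated in positive and negative ionization mode. Mixtures of ~100 pure standards ran on a Zorbax Extend-C18 column (2.1 × 50 mm, 1.8 μm) at 100 μL/min, with water and acetonitrile each containing 0.1% formic acid and dead and dwell volumes of 40 μL and 900 μL. Retention time was read from adduct peaks picked by computer and checked manually.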", "data": [{"smiles": "COc1cc(-c2nc3ccccn3c2Nc2ccccc2C)ccc1O", "values": [{"measurement": "RP-LC retention time", "value": 650, "unit": "s"}]}, {"smiles": "Cc1cccc(CN2CCCN(c3ncccc3-c3nc(C4CC4)no3)CC2)c1", "values": [{"measurement": "RP-LC retention time", "value": 732, "unit": "s"}]}, {"smiles": "COc1ccc(-c2noc(C3CC(=O)N(c4ccc(C)c(C)c4)C3)n2)cc1OC", "note": "(stereo not given)", "values": [{"measurement": "RP-LC retention time", "value": 928, "unit": "s"}]}, {"smiles": "COc1cccc(CNC(=O)Nc2ccc(-c3nc(-c4cc(C)ccc4C)co3)cc2)c1", "values": [{"measurement": "RP-LC retention time", "value": 1180, "unit": "s"}]}, {"smiles": "CCc1nc2c(c(=O)n1CC(=O)Nc1c(C)cccc1C)CN(Cc1ccccc1)CC2", "values": [{"measurement": "RP-LC retention time", "value": 645, "unit": "s"}]}, {"smiles": "COc1ccc(Cl)cc1NS(=O)(=O)c1ccc2c(c1)C(=O)N(C)c1ncccc1O2", "values": [{"measurement": "RP-LC retention time", "value": 958, "unit": "s"}]}, {"smiles": "Cc1ccc(S(=O)(=O)N2CCCC2c2nc(-c3cccc(C(F)(F)F)c3)no2)cc1", "note": "(stereo not given)", "values": [{"measurement": "RP-LC retention time", "value": 1210, "unit": "s"}]}, {"smiles": "Cc1ccc(S(=O)(=O)Cc2noc(-c3ccc(Cl)cc3)n2)cc1", "values": [{"measurement": "RP-LC retention time", "value": 1040, "unit": "s"}]}, {"smiles": "COc1ccc(NC(=O)c2cc(C)n3nccc3n2)c(C)c1", "values": [{"measurement": "RP-LC retention time", "value": 886, "unit": "s"}]}, {"smiles": "Cc1nc(-c2ccncc2)nc2c1CCC(=O)N2CCC1=CCCCC1", "values": [{"measurement": "RP-LC retention time", "value": 912, "unit": "s"}]}, {"smiles": "COc1ccc(C(=O)N2C[C@@H]3C[C@H](NC(=O)c4cccs4)[C@H]2C3)c(OC)c1", "values": [{"measurement": "RP-LC retention time", "value": 701, "unit": "s"}]}, {"smiles": "COc1ccc(C(C)NC(=O)c2cnn3c(-c4ccc5c(c4)OCO5)ccnc23)cc1OC", "note": "(stereo not given)", "values": [{"measurement": "RP-LC retention time", "value": 875, "unit": "s"}]}, {"smiles": "COc1cc(C(=O)N2CCN(c3cc(N(C)C)nc(C)n3)CC2)cc(OC)c1OC", "values": [{"measurement": "RP-LC retention time", "value": 599, "unit": "s"}]}, {"smiles": "COc1ccc(C)cc1NS(=O)(=O)c1cc(-c2cc(C(F)(F)F)on2)sc1C", "values": [{"measurement": "RP-LC retention time", "value": 1210, "unit": "s"}]}, {"smiles": "Cc1ccc(Nc2c(-c3ccc(C(=O)O)cc3)nc3cnccn23)c(C)c1", "values": [{"measurement": "RP-LC retention time", "value": 928, "unit": "s"}]}, {"smiles": "CCn1ccc2cc(S(=O)(=O)N3CCCC(C(=O)NCc4ccc(OC(C)C)cc4)C3)ccc21", "note": "(stereo not given)", "values": [{"measurement": "RP-LC retention time", "value": 1060, "unit": "s"}]}, {"smiles": "COc1ccc(OC)c(CNC(=O)c2ccc3[nH]c4c(c3c2)CN(C(C)=O)CC4)c1", "values": [{"measurement": "RP-LC retention time", "value": 680, "unit": "s"}]}, {"smiles": "CCn1ccc2c(cc(C(=O)Nc3ccc(C)c(Cl)c3)n2C)c1=O", "values": [{"measurement": "RP-LC retention time", "value": 907, "unit": "s"}]}, {"smiles": "CCc1nc2ccccc2c(=O)n1Cc1noc(/C=C/c2ccc(OC)cc2)n1", "values": [{"measurement": "RP-LC retention time", "value": 1000, "unit": "s"}]}, {"smiles": "COc1ccccc1-c1nnc(-c2ccc(OC)c(S(=O)(=O)N3CCCC3)c2)o1", "values": [{"measurement": "RP-LC retention time", "value": 830, "unit": "s"}]}, {"smiles": "Cn1cc(-c2nc(C(=O)NCc3cccc(C(F)(F)F)c3)cs2)c2cccnc21", "values": [{"measurement": "RP-LC retention time", "value": 983, "unit": "s"}]}, {"smiles": "COc1ccc(N2CCN(c3cc(SCC(=O)Nc4cccc(Cl)c4)ncn3)CC2)cc1", "values": [{"measurement": "RP-LC retention time", "value": 1030, "unit": "s"}]}, {"smiles": "COc1cccc(NC(=O)Cc2csc3nc(-c4ccccc4)cn23)c1", "values": [{"measurement": "RP-LC retention time", "value": 791, "unit": "s"}]}, {"smiles": "O=C(NC(c1ccccc1)c1nnc(N2CCCCC2)o1)C1CCCCC1", "note": "(stereo not given)", "values": [{"measurement": "RP-LC retention time", "value": 878, "unit": "s"}]}, {"smiles": "Cc1ccc2ncn(C3CCN(S(=O)(=O)c4cc(C)c(C)cc4C)CC3)c(=O)c2c1", "values": [{"measurement": "RP-LC retention time", "value": 1050, "unit": "s"}]}, {"smiles": "CC(C)NC(=O)CN1C(=O)CC(c2ccc(Br)s2)=Nc2ccccc21", "values": [{"measurement": "RP-LC retention time", "value": 929, "unit": "s"}]}, {"smiles": "COC[C@@H]1CN(S(=O)(=O)c2cccnc2)C[C@H]1c1ccncc1", "values": [{"measurement": "RP-LC retention time", "value": 652, "unit": "s"}]}, {"smiles": "CC(=O)N1CCc2c(sc(NC(=O)C3(c4ccc(Cl)cc4)CCCC3)c2C#N)C1", "values": [{"measurement": "RP-LC retention time", "value": 946, "unit": "s"}]}, {"smiles": "Cc1ccc(-c2noc(Cn3cnc4c(oc5ccccc54)c3=O)n2)cc1", "values": [{"measurement": "RP-LC retention time", "value": 999, "unit": "s"}]}, {"smiles": "CN(C)c1ccc(CNC(=O)C2CCN(S(=O)(=O)c3ccc4c(c3)NC(=O)CO4)CC2)cc1", "values": [{"measurement": "RP-LC retention time", "value": 598, "unit": "s"}]}, {"smiles": "Clc1cccc(-c2cc3c(N4CCN(Cc5ccc6c(c5)OCO6)CC4)nccn3n2)c1", "values": [{"measurement": "RP-LC retention time", "value": 820, "unit": "s"}]}, {"smiles": "O=C(NCc1csc(-c2cccs2)n1)C1CCN(C(=O)c2ccc(F)cc2)CC1", "values": [{"measurement": "RP-LC retention time", "value": 743, "unit": "s"}]}, {"smiles": "COC(=O)c1ccc(NC(=O)Cn2cnc3c(sc4nc(-c5ccccc5)ccc43)c2=O)cc1", "values": [{"measurement": "RP-LC retention time", "value": 985, "unit": "s"}]}, {"smiles": "CCOc1ccccc1NC(=O)Nc1ccc2c(c1)CCN2S(=O)(=O)c1ccc(C)cc1", "values": [{"measurement": "RP-LC retention time", "value": 1100, "unit": "s"}]}, {"smiles": "COC[C@@H]1CN(S(=O)(=O)c2cccc(C#N)c2)C[C@H]1c1ccncc1", "values": [{"measurement": "RP-LC retention time", "value": 630, "unit": "s"}]}, {"smiles": "O=C(Cc1cccs1)N1CCCCC1c1nncn1-c1ccccc1", "note": "(stereo not given)", "values": [{"measurement": "RP-LC retention time", "value": 712, "unit": "s"}]}, {"smiles": "CCCC(=O)N1CCCC1COc1ccc(C(=O)NC2CC2)cc1", "note": "(stereo not given)", "values": [{"measurement": "RP-LC retention time", "value": 717, "unit": "s"}]}, {"smiles": "COc1ccc(Br)cc1S(=O)(=O)NCCc1ccccc1", "values": [{"measurement": "RP-LC retention time", "value": 962, "unit": "s"}]}, {"smiles": "Cc1nn(C)c(C)c1S(=O)(=O)N1CCC(c2noc(-c3cccnc3)n2)C1", "note": "(stereo not given)", "values": [{"measurement": "RP-LC retention time", "value": 662, "unit": "s"}]}, {"smiles": "CCc1noc(-c2ccnc(-n3cnc(C(=O)Nc4ccc(F)cc4C)c3)c2)n1", "values": [{"measurement": "RP-LC retention time", "value": 990, "unit": "s"}]}, {"smiles": "Cc1ccc(C)c(N2CCN(c3ccnc(SCC(=O)Nc4c(C)cccc4C)n3)CC2)c1", "values": [{"measurement": "RP-LC retention time", "value": 1010, "unit": "s"}]}, {"smiles": "O=C(CC1CCN(C(=O)Nc2ccc(F)cc2)CC1)N1CCCCC1", "values": [{"measurement": "RP-LC retention time", "value": 740, "unit": "s"}]}, {"smiles": "O=C(NCc1ccc(F)c(Cl)c1)C1CCN(C(=O)c2ncn3c2COC(c2ccccc2)C3)CC1", "note": "(stereo not given)", "values": [{"measurement": "RP-LC retention time", "value": 842, "unit": "s"}]}, {"smiles": "Cc1ccc(NC(=O)Cn2nc(N(C)C)c3ccccc3c2=O)cc1", "values": [{"measurement": "RP-LC retention time", "value": 857, "unit": "s"}]}, {"smiles": "CCN1CC(c2nc(-c3ccccc3)no2)C2(CCCC2)C1", "note": "(stereo not given)", "values": [{"measurement": "RP-LC retention time", "value": 709, "unit": "s"}]}, {"smiles": "CCn1cc(C(=O)Nc2ccccc2)c2cccnc21", "values": [{"measurement": "RP-LC retention time", "value": 798, "unit": "s"}]}, {"smiles": "CCOc1ccc(CNC(=O)C2CCCN(c3cc(=O)n(C)c(=O)n3CC)C2)cc1OCC", "note": "(stereo not given)", "values": [{"measurement": "RP-LC retention time", "value": 791, "unit": "s"}]}, {"smiles": "COc1ccc(CC(=O)NC2CCN(c3cc(-c4ccc(Cl)cc4)[nH]n3)C2)cc1", "note": "(stereo not given)", "values": [{"measurement": "RP-LC retention time", "value": 762, "unit": "s"}]}, {"smiles": "COc1cccc(CNC(=O)C2CCCN2S(=O)(=O)c2cc3c(cc2C)NC(=O)CO3)c1", "note": "(stereo not given)", "values": [{"measurement": "RP-LC retention time", "value": 721, "unit": "s"}]}, {"smiles": "CCN1c2ccccc2C(=O)NC12CCN(C(=O)Nc1ccccc1OC)CC2", "values": [{"measurement": "RP-LC retention time", "value": 781, "unit": "s"}]}, {"smiles": "Cc1nc(-c2nnc(NC(=O)c3cnccn3)o2)cs1", "values": [{"measurement": "RP-LC retention time", "value": 567, "unit": "s"}]}, {"smiles": "O=C(NCc1ccccn1)c1ccc2c(c1)nc1n2CCCCC1", "values": [{"measurement": "RP-LC retention time", "value": 548, "unit": "s"}]}, {"smiles": "CC1CCc2c(sc3nc(CCC(=O)N4CCC(C(N)=O)CC4)[nH]c(=O)c23)C1", "note": "(stereo not given)", "values": [{"measurement": "RP-LC retention time", "value": 697, "unit": "s"}]}, {"smiles": "CCC(=O)N1CCc2sc(S(=O)(=O)N3CCN(c4ccccc4C)CC3)cc2C1", "values": [{"measurement": "RP-LC retention time", "value": 1030, "unit": "s"}]}, {"smiles": "O=C(Nc1nc(-c2ccc([N+](=O)[O-])cc2)cs1)C1=COCCO1", "values": [{"measurement": "RP-LC retention time", "value": 844, "unit": "s"}]}, {"smiles": "O=C(NCC1CCOCC1)Nc1cccc(Br)c1", "values": [{"measurement": "RP-LC retention time", "value": 749, "unit": "s"}]}, {"smiles": "CCOC(=O)C1CCN(C(=O)c2cc(CC)n3nc(-c4ccco4)cc3n2)CC1", "values": [{"measurement": "RP-LC retention time", "value": 886, "unit": "s"}]}, {"smiles": "CCC(C)Nc1cc(C)nc2c(C)c(-c3ccc(Cl)cc3)nn12", "note": "(stereo not given)", "values": [{"measurement": "RP-LC retention time", "value": 807, "unit": "s"}]}, {"smiles": "Cc1c(Cc2ccccc2)[n+](=O)c2ccccc2n1[O-]", "values": [{"measurement": "RP-LC retention time", "value": 1020, "unit": "s"}]}, {"smiles": "CC(C)n1cnc(S(=O)(=O)N2CCC(C(=O)N3CCN(c4ccc(F)cc4)CC3)CC2)c1", "values": [{"measurement": "RP-LC retention time", "value": 799, "unit": "s"}]}, {"smiles": "Cc1cc(C)cc(S(=O)(=O)N2CCc3c(c(-c4nnc(-c5ccc(F)cc5)o4)nn3C)C2)c1", "values": [{"measurement": "RP-LC retention time", "value": 812, "unit": "s"}]}, {"smiles": "Cc1ccccc1N1CCN(Cc2nc(-c3ccc(N4CCSCC4)nc3)no2)CC1", "values": [{"measurement": "RP-LC retention time", "value": 801, "unit": "s"}]}, {"smiles": "CCC(=O)Nc1cnc(-c2ccc(F)cc2)nc1", "values": [{"measurement": "RP-LC retention time", "value": 794, "unit": "s"}]}, {"smiles": "O=C(NCc1ccc(F)cc1F)C1CCN(c2cc(N3CCOCC3)ncn2)CC1", "values": [{"measurement": "RP-LC retention time", "value": 627, "unit": "s"}]}, {"smiles": "O=C(NCc1cscn1)C1CCN(S(=O)(=O)c2ccc(Br)s2)CC1", "values": [{"measurement": "RP-LC retention time", "value": 740, "unit": "s"}]}]}
